Blank lines part the entries; values can stand above or below the compound they belong to.
Assays:
CES2 = target: T1, CES2 (Homo sapiens, UniProt O00748); assay: In vitro CES2 enzyme-based assay (4-NPA substrate); type: biochemical
T1 construct: purchased Sigma-Aldrich E0412
T1 sequence (O00748 27-559): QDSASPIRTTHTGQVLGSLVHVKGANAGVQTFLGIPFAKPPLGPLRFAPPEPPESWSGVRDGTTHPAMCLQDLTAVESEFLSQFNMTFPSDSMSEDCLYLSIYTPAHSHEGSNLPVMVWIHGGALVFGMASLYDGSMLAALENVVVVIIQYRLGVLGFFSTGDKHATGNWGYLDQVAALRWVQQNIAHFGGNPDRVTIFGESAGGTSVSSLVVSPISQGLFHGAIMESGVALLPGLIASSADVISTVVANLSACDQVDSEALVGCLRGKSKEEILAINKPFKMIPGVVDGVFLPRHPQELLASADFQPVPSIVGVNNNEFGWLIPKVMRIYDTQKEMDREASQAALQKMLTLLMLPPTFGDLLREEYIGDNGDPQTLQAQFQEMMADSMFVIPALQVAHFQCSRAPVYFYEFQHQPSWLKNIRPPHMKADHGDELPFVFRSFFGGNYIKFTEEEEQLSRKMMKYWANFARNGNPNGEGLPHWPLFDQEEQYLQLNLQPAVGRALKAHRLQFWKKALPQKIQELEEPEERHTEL
Description: (§1) The recombinant purified CES2 and CES1 enzymes, and 4-NPA were purchased from Sigma-Aldrich with product IDs E0412, E0162, and N8130, respectively. […] All compounds were dissolved in DMSO at 10mM. In the screening assay, the compounds were diluted in 50mM HEPES and the final compound concentration in the reaction system was adjusted to 50μM. […] The assays were conducted at 300μl total volume in 96-well plates. Reactions consisted of the following: 100μL 50mM HEPES with 20 units of enzyme, 10μL compound solution (various concentrations), 2μL 300mM 4-NAP, and 188μL 50mM HEPES, pH 7.4. The compound and 4-NAP solution were added into the plate first and then the reaction was initiated by the addition of enzyme solution. After 15 minutes incubation at 25°C, absorbance was measured using a microplate reader at 405nm in FLUOstar Omega Microplate Reader. The CES1/CES2 inhibitor compound bis-(4-nitrophenyl) phosphate (BNPP) was used as positive control in all the assays.

CES1 = target: T2, CES1 (Homo sapiens, UniProt P23141); assay: In vitro CES1 enzyme-based assay (4-NPA substrate); type: biochemical; settings: even at 300μM
T2 construct: purchased Sigma-Aldrich E0162
T2 sequence (P23141 18-567): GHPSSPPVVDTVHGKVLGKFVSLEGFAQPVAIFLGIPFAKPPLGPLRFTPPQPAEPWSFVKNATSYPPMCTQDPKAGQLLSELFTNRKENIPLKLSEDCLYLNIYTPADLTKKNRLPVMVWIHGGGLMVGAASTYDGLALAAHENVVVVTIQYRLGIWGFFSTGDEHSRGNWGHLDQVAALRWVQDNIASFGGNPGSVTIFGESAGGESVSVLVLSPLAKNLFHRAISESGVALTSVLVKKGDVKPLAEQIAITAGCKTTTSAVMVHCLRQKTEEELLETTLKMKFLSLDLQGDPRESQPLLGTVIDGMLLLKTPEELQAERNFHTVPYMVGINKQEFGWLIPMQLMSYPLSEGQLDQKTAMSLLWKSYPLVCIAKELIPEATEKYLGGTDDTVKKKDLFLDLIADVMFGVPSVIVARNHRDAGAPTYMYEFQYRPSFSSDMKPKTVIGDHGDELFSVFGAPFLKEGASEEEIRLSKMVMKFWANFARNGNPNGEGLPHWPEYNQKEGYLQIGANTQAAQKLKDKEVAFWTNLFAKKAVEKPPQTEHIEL
Description: as §1

[1] = parameters: method as in PMID 10725311; settings: after i.v. dosing radiolabeled drug; cited from earlier work
[2] = system: murine CT-26 tumor-bearing immuno-competent mice; assay: CPT-11 induced diarrhea in CT-26 tumor-bearing mice; type: in vivo; settings: for mice that had to be euthanized: by day 12; for mice with rapid recovery in body weight: 5 days after cessation of CPT-11; for mice that never showed any signs of diarrhea: through end of study
Description: We tested the effect of Hst (20 and 100 mg/kg) on murine CT-26 tumor-bearing immuno-competent mice with CPT-11 (50 mg/kg, roughly equivalent to 5 mg/kg typical human CPT-11 dose) intraperitoneally injected daily from day 1-9. Hst was given from day 1-15 and 30 min before CPT-11 administration on day 1-9. Changes of stool character were recorded twice daily to determine the severity of diarrhea. Fecal staining of skin or lose watery stool was determined as diarrhea but not severe, and only the black sticky stool (bloody diarrhea) was determined as severe diarrhea.
(§2) CT-26 cell line was used to make the tumor bearing mouse model by s.c. injection of 0.02mL cells in PBS at 5×10^7 cells/mL into the posterior mid-dorsum. Tumor volumes were estimated by the formula π/6×a^2×b, where a is the short and b is the long axis. When tumor volume reached roughly 100mm^3 (~10 days after implantation, defined as day 1), mice were randomly separated into 5 groups, 1). CPT-11 only group, receiving CPT-11 50mg/kg + vehicle 2). CPT-11+Hst 20mg/kg, 3). CPT-11+Hst 100mg/kg, 4). Hst 100mg/kg only, and 5) vehicle control group. CPT-11 was administrated by i.p. injection from day 1 to day 9 while Hst were administrated by oral gavage from day 1 to the end of study. An equivalent dosage of saline or CMC were administrated by i.p injection and oral gavage as vehicle, respectively. Mice were examined daily for signs of diarrhea (fecal staining of skin, lose watery stool) and bloody diarrhea (black sticky stool), as well as tumor growth. After sacrifice, jejunum, ileum and colon samples were dissected. Tissues were formalin-fixed and paraffin embedded for histological examination using 4μm-thick, 100μm step serial sections stained with H&E. A histologic score to evaluate inflammation, epithelial changes and mucosa architecture for each slide was calculated as described previously. For immunohistochemical staining, sections were stained with antibodies against Ki67, β-catenin, F4/80, Ly-6B.2 and pSTAT3 (Tyr705) overnight at 4°C. Slides were then washed and stained with the appropriate secondary antibodies. Mounted slides were examined under Olympus BX61 upright microscopy (HMRI Advanced Cellular and Tissue Microscope Core Facility).

[3] = parameters: method as in printed; settings: library annotation; ref not given; cited from earlier work
liver CES = assay: Ex vivo liver CES assay (microsomes) after oral Hst; type: in vivo, mice; settings: 20 mg/kg Hst oral
Description: (§3) Single oral dose of 135 mg Hst in healthy adult subjects was rapidly absorbed and the concentration in plasma observed 20 min after dosing and reached a peak in 4h.
(§4) Microsomes of the liver and small intestinal epithelium were prepared from animals with or without Hst treatment. Animals were killed by exsanguination at 4h after single oral dosing of Hst. Their liver and small intestines were removed immediately and cooled in cold physiological saline. Small intestine epithelium was scraped from the intestine with slide glass. Tissues were homogenized in 1.15% KCl on ice by a Teflon homogenizer, followed by centrifugation at 9,000×g for 10min at 4°C. The supernatant was re-centrifuged at 105,000×g for 60 min at 4°C, resulting in sedimentation of the microsome. The microsomal pellet was re-suspended in 1.15% KCl. To measure CES activity, microsomes (protein content: 1 mg/mL) were incubated with 4-NAP solution in phosphate-buffered saline at 37°C, and 50μL aliquots were sampled up to 20 min.

[4] = single oral dose of 135 mg Hst, healthy adult subjects, cited from earlier work
[5] = system: different cancer cell lines including CT-26; assay: Cell viability analysis on cancer cell lines; type: cell-based; settings: Hst alone
Description: (§5) CT-26 (murine colon cancer), HCT-116 (human colon cancer), CRL-1739 (human stomach gastric cancer) and CRL-1682 (human pancreatic cancer) cell lines were purchased form ATCC. All cells were cultured in T-75 flasks (Falcon). All media were purchased from Life Technologies and supplemented with 10% fetal bovine serum (Sigma) and 1% penicillin-streptomycin (Fisher Scientific). CT-26 and CRL-1682 were cultured in RPMI-1640 medium. CRL-1739 and HCT-116 were cultured in DMEM medium. All cells were cultured in a 37° C, 5% CO2 incubator.

STAT3 = STAT3 Cignal Reporter Assay; type: cell-based; settings: HEK293 cells, Hst 24h, IL-6 100 ng/ml 90 min
Description: STAT3 transcription factor activity was measured using the Cignal STAT3 Reporter Assay Kit (Qiagen) according to the manufacturers’ instructions. HEK293 cells were transfected with the Renilla luciferase reporter plasmid. Twenty-four hours later, cells were treated with Hst for 24h, and were incubated with 100 ng/ml IL-6 for 90 min before lysed. Subsequently, Renilla luciferase activity was measured in a microplate reader. Relative transcription factor activity was calculated by dividing relative light units (RLU) of the STAT3-specific reporter and the negative control reporter.

small intestinal CES = assay: Ex vivo small intestinal CES assay (microsomes) after oral Hst; type: in vivo, mice; settings: 20 mg/kg Hst oral, 4h after single dose, n=5
Description: as §3, §4

CT-26 tumor = assay: Tumor growth in CT-26 tumor-bearing mice; type: in vivo
Description: as §2, with “For immunohistochemical staining, sections were stained with antibodies against Ki67, β-catenin, F4/80, Ly-6B.2 and pSTAT3 (Tyr705) overnight at 4°C. Slides were then washed and stained with the appropriate secondary antibodies. Mounted slides were examined under Olympus BX61 upright microscopy (HMRI Advanced Cellular and Tissue Microscope Core Facility).” left out

p-STAT3 = assay: Immunohistochemistry of p-STAT3 in mouse tumors; type: in vivo, mice; settings: CPT-11 + Hst
Description: as §2, with “For immunohistochemical staining, sections were stained with antibodies against Ki67, β-catenin, F4/80, Ly-6B.2 and pSTAT3 (Tyr705) overnight at 4°C. Slides were then washed and stained with the appropriate secondary antibodies. Mounted slides were examined under Olympus BX61 upright microscopy (HMRI Advanced Cellular and Tissue Microscope Core Facility).” left out

intestinal inflammation = assay: Intestinal inflammation in CPT-11 treated mice; type: in vivo
Description: as §2, with “For immunohistochemical staining, sections were stained with antibodies against Ki67, β-catenin, F4/80, Ly-6B.2 and pSTAT3 (Tyr705) overnight at 4°C. Slides were then washed and stained with the appropriate secondary antibodies. Mounted slides were examined under Olympus BX61 upright microscopy (HMRI Advanced Cellular and Tissue Microscope Core Facility).” left out

p-STAT3 (Tyr705) = assay: Western blot of IL-6 induced p-STAT3 (Tyr705) in cancer cell lines; type: cell-based; settings: various cancer cell lines, IL-6 100ng/ml 90 min
Description: as §5
RIPA buffer was purchased form Fisher Scientific. Xpert protease inhibitor cocktail solution 100X and Xpert phosphatase inhibitor cocktail solution 100X were purchased from GenDEPOT. 4–20% Mini-PROTEAN® TGX™ Gel and Trans-Blot® Turbo™ Mini Nitrocellulose Transfer Packs were purchased form Bio-Rad. Rabbit NF-κB and phospho-Stat3 (Tyr705) primary antibody, mouse β-Actin (8H10D10) primary antibody, and anti-mouse IgG HRP conjugated, anti-rabbit IgG HRP conjugated secondary antibody were purchased from Cell Signaling Technology.

[6] = parameters: method as in printed; settings: ref not given; cited from earlier work
[7] = parameters: method as in printed; settings: high dose loperamide; ref not given; cited from earlier work

- selectivity for CES2 (over CES1) (CES2; CES2 vs CES1): > 100 fold
- IC50 (CES2; recombinant CES2, 4-NPA, 15 min, 25°C): 1660 ± 690 nM
- CES1 inhibition (CES1): no significant CES1 inhibition
Structure (SMILES): O=C(/C=C/c1ccccc1)c1ccc(O)cc1O [2’, 4’-dihydroxychalcone]

Structure (SMILES): CCc1c2c(nc3ccc(OC(=O)N4CCC(N5CCCCC5)CC4)cc13)-c1cc3c(c(=O)n1C2)COC(=O)[C@]3(O)CC [CPT-11, irinotecan]
- fraction found unchanged in human bile [1]: 30%
- mice that had to be euthanized ([2]; CPT-11 only group): all
- mice that developed some degree of diarrhea ([2]; mouse, in vivo, 15 day): 100%

Structure (SMILES): CC1(C)CCC2=C(O1)c1ccccc1C(=O)C2=O [compound 1004, beta-Lapachone]
- solubility remark [3]: poorly soluble, anti-tumor at mM level, combination and radiosensitizing activity

Structure (SMILES): COc1ccc([C@@H]2CC(=O)c3c(O)cc(O)cc3O2)cc1O [hesperetin]
- liver CES activity (liver CES; 4h after single dose, n=5): 8.89±0.74 nmol/min/g protein
- change of liver CES activity (liver CES; vs control): did not have an obvious change
- time after dosing at which concentration in plasma was observed [4]: 20 min
- time to peak plasma concentration [4]: 4 h
- Cmax ([4]; read-out: mean peak plasma concentration (Cmax)): 2730 ± 1350 nM
- cytotoxicity in vitro [5]: did not show any potent cytotoxicity effects
- concentration inhibiting IL-6 induced STAT3 reporter activity (STAT3): 20 to 100 µM
- small intestinal CES activity (small intestinal CES): 2.28±1.42 nmol/min/g protein
- reduction of small intestinal CES activity (small intestinal CES; vs control): 56%
- effect on in vivo antitumor activity of CPT-11 (CT-26 tumor; Hst 20 and 100 mg/kg + CPT-11, starting 5-6 days after Hst treatment): enhanced the in vivo antitumor activity of CPT-11
- tumor growth, Hst alone (CT-26 tumor; Hst alone 100 mg/kg): mild inhibition on tumor growth
- p-STAT3 expression in the tumors (p-STAT3): remarkably suppressed
- infiltration of inflammatory cells (neutrophils, macrophages) and cytokine release (TNF-α, IL-6) (intestinal inflammation; dose dependent): blocked
- tissue expression of NF-κB (intestinal inflammation; mouse small intestine): significantly down-regulated
- CES1 inhibition (CES1): no significant CES1 inhibition
- IL-6 induced p-STAT3 (Tyr705) expression (p-STAT3 (Tyr705)): significant down-regulation
- mice with severe diarrhea ([2]; CPT-11 + Hst 20 mg/kg oral, day 11): 2 out of 10
- mice with rapid recovery in body weight ([2]; CPT-11 + Hst 20 mg/kg): 20%
- mice that had to be euthanized ([2]; CPT-11 + Hst 20 mg/kg): 40%
- body weight lost on average ([2]; CPT-11 + Hst 20 mg/kg, day 11): 20%
- mice that never showed any signs of diarrhea ([2]; CPT-11 + Hst 20 mg/kg): 20%
- mice with severe diarrhea ([2]; CPT-11 + Hst 100 mg/kg oral, until day 12): 2 out of 10
- mice with rapid recovery in body weight ([2]; CPT-11 + Hst 100 mg/kg): 20%
- mice that had to be euthanized ([2]; CPT-11 + Hst 100 mg/kg): 20%
- body weight lost on average ([2]; CPT-11 + Hst 100 mg/kg, day 11): 17%
- mice that never showed any signs of diarrhea ([2]; CPT-11 + Hst 100 mg/kg): 30%
- severe diarrhea prohibited ([2]; oral Hst, CPT-11 administered tumor-bearing mice): 80%

Structure (SMILES): COc1ccc([C@@H]2CC(=O)c3c(O)cc(O[C@@H]4O[C@H](CO[C@@H]5O[C@@H](C)[C@H](O)[C@@H](O)[C@H]5O)[C@@H](O)[C@H](O)[C@H]4O)cc3O2)cc1O [hesperidin]
- fraction metabolized in cells to generate Hst [6]: 99%

Structure (SMILES): CN(C)C(=O)C(CCN1CCC(O)(c2ccc(Cl)cc2)CC1)(c1ccccc1)c1ccccc1 [loperamide]
- incidence of grade 3-4 diarrheas [7]: 28-40 % of treated patients

From article PMC6021345 (Oncotarget, 2018)
